How the values were obtained:
Assay type in all cases: binding
[1] = molecular target: Mu opioid receptor (Homo sapiens, UniProt P35372); test: Affinity at the μ receptor ([35S]GTPγS membrane assay); details: opioid receptor membranes, 30 min room temperature, read-out: calc Ki (nM) μ
Experimental: (§1) Affinity at the μ, k and δ receptors for preferred compounds was obtained according to the following assays:
(§2) Mu, kappa or delta opioid receptor membrane solution was prepared by sequentially adding final concentrations of 0.075 μg/μl of the desired membrane protein, 10 μg/ml saponin, 3 μM GDP and 0.20 nM [^35S]GTPγS to binding buffer (100 mM NaCl, 10 mM MgCl2, 20 mM HEPES, pH 7.4) on ice. The prepared membrane solution (190 μl/well) was transferred to 96-shallow well polypropylene plates containing 10 μl of 20× concentrated stock solutions of agonist prepared in DMSO. Plates were incubated for 30 min at room temperature with shaking. Reactions were terminated by rapid filtration onto 96-well Unifilter GF/B filter plates (Packard) using a 96-well tissue harvester (Brandel) and followed by three filtration washes with 200 μl ice-cold binding buffer (10 mM NaH2PO4, 10 mM Na2HPO4, pH 7.4). Filter plates were subsequently dried at 50° C. for 2–3 hours. Fifty μl/well scintillation cocktail (MicroScint20, Packard) was added and plates were counted in a Packard Top-Count for 1 min/well.
(§3) Data were analyzed using the curve fitting functions in GraphPad PRISM™, v.

[2] = molecular target: kappa opioid receptor (Homo sapiens, UniProt P41145); test: Affinity at the k receptor ([35S]GTPγS membrane assay); details: opioid receptor membranes, 30 min room temperature, read-out: calc Ki (nM) k
Experimental: as §1, §2, §3

[3] = molecular target: delta opioid receptor (Homo sapiens, UniProt P41143); test: Affinity at the δ receptor ([35S]GTPγS membrane assay); details: opioid receptor membranes, 30 min room temperature, read-out: calc Ki (nM) δ2
Experimental: as §1, §2, §3

kappa opioid receptor, sequence (P41145 whole entry): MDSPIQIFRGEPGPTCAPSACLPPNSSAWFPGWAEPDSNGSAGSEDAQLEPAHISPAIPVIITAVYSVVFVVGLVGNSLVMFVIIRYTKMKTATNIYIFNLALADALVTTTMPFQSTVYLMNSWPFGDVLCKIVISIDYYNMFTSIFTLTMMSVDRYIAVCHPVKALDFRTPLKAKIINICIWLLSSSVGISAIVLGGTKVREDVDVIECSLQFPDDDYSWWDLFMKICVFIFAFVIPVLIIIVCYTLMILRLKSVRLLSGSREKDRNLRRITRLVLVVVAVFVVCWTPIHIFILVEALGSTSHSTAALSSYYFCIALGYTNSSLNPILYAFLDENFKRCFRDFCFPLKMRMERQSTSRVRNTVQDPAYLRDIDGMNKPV
delta opioid receptor, sequence (P41143 whole entry): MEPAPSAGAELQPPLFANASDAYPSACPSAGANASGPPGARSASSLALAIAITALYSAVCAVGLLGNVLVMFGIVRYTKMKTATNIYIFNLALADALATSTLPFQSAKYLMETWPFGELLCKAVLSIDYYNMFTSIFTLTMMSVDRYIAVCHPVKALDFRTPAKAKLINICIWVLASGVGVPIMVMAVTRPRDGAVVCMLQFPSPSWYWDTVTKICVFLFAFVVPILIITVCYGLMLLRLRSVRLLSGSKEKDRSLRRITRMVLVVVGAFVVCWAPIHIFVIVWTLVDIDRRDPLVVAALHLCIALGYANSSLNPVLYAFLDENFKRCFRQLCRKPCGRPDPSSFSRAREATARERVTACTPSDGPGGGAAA
Mu opioid receptor, sequence (P35372 whole entry): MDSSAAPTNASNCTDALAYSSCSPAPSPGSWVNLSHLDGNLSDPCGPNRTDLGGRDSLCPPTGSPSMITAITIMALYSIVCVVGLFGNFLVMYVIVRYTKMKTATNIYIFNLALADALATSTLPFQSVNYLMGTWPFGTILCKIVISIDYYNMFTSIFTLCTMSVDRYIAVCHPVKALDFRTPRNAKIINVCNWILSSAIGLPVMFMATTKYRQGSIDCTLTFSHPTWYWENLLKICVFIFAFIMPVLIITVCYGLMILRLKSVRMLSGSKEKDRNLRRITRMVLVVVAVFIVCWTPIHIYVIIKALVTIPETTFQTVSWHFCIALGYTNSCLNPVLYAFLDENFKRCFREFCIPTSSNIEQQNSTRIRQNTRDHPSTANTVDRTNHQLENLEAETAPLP

Structure (SMILES): CCCCN(CCCC)CCN(Cc1ccccc1)C(=O)Cc1ccccc1 [1-[1-benzyl-1-(2-phenyl-1-oxo-ethyl)-amino]-2-dibutylamino-ethyl]
- Ki [1]: 40 nM
- Ki [2]: 3500 nM
- Ki [3]: > 10000 nM
